# PMC11366520, “Purification of angiotensin converting enzyme inhibitory peptides and antihypertensive effect generated from Indonesian traditional fermented beef (Cangkuk)” (Animal Bioscience, 2024)
# Where two headings read alike, the source gives them in different places. Residues, ends and D or L forms follow the SMILES beside them. No end group written: not given here.
# Assays:
# [1] = molecular target: T1, Angiotensin converting enzyme (from rabbit lung) (Oryctolagus cuniculus, UniProt P12822); test: ACE-inhibitory activity, hippuric acid liberated from Hip-His-Leu (Cushman and Cheung, modified); format: biochemical; conditions: synthetic peptides, purity 80%, sodium borate buffer pH 8.3, Hip-His-Leu 7.6 mM, NaCl 608 mM, pre-incubation 5 min, incubation 30 min, 37°C, 228 nm
# T1 construct: Angiotensin converting enzyme (from rabbit lung); purchased Sigma-Aldrich Co. (St. Louis, MO, USA); host or cells: rabbit lung (tissue-derived)
# T1 sequence (P12822 34-1310): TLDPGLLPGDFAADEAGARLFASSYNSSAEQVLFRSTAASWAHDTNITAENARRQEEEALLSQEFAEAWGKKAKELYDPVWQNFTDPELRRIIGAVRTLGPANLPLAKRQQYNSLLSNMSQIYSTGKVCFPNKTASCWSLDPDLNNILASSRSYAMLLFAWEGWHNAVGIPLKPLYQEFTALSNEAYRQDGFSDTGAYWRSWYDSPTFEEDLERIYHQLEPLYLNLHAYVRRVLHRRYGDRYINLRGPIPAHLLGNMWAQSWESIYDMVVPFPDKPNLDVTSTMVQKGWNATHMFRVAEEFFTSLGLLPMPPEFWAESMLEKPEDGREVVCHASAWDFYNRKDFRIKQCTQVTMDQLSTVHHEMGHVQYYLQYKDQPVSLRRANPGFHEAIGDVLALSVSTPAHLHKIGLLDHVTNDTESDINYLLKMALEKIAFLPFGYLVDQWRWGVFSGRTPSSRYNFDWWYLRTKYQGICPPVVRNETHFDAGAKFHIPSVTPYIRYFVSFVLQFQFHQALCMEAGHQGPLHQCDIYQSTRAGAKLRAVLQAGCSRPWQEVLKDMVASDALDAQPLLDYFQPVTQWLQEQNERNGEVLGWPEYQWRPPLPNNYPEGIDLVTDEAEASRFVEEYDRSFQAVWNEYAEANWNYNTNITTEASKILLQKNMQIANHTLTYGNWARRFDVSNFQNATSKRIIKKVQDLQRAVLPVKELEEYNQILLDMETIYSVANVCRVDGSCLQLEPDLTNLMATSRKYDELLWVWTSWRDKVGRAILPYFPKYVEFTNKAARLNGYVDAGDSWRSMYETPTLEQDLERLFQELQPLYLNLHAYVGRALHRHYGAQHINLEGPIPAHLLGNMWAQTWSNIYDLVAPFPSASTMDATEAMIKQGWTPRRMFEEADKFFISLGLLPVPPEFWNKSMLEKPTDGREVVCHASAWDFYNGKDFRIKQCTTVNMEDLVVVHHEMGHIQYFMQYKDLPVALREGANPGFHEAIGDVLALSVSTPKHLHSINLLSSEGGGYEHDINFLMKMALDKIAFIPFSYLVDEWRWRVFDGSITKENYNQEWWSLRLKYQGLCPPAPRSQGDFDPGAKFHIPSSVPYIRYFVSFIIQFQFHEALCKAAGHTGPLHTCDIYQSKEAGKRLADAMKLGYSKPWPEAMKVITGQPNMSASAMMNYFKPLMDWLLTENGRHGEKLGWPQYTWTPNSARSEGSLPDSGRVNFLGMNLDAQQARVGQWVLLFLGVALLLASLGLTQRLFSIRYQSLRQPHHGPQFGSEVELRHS
# Text: The raw materials used in processing Cangkuk were fresh beef meat (brisket) from male Bali cattle, aged 2.5 to 3 years, purchased from the Animal Slaughtering House in Pekanbaru City. Green bamboo shoots were harvested from local farms. The additional ingredients were cooked rice, salt and distilled water. Angiotensin converting enzyme (from rabbit lung) and the substrate, hippuryl-L-histidyl-leucine, were purchased from Sigma-Aldrich Co. (St. Louis, MO, USA). All the chemicals and reagents used were of analytical grade.
# ACE-inhibitory activity was analyzed according to the method of Cushman and Cheung with modifications by Arihara et al. This assay is based on liberation of hippuric acid from Hip-His-Leu catalyzed by ACE. A sample solution (15 μL) was mixed with 125 μL of a 100 mM sodium borate buffer (pH 8.3) containing 7.6 mM Hyp-Hys-Leu and 608 mM NaCl followed by pre-incubation for 5 min at 37°C. The reaction was initiated by adding 50 μL of ACE dissolved in distilled water, and the mixture was incubated for 30 min at 37°C. The reaction was stopped by adding 125 μL of 1 N HCl. […] Hippuric acid was dissolved with 1 mL of distilled water and its concentration spectrophotometrically determined at 228 nm. ACE inhibitory activity was calculated as: […]
# where A, absorbance of the sample reaction; B, absorbance of the blank; and C, absorbance of the control (distilled water).
# ACE = conditions: cited from earlier work; for IC50: read-out: IC50 value (ACE inhibition)
# Description: According to a previous study, “Cangkuk” is made from fresh beef to which bamboo shoots, rice and salt are added. The treatment evaluated in the current research was addition of bamboo shoots with different preparation methods (chopped, ground, and extracted) and varied meat:bamboo shoot ratios (1:0.75, 1:1, and 1:1.25). Then, these preparations were fermented under anaerobic conditions at room temperature for seven days. It was reported that all treatments had ACE-inhibitory activities ranging from 43% to 80%. […] EAPLNPKANR, is a fragment of the 3rd to 12th amino acid sequence of LTEAPLNPKANREK [25]. […] The presence of hydrophobic amino acids such as isoleucine, valine, and glycine in the sequence has been associated with ACE-inhibitory activity.
# SHRs = conditions: cited from earlier work
# Text: Meat and meat products are excellent sources of ACE-inhibitory peptides. ACE-inhibitory peptides from animal proteins can be produced by several methods, including enzymatic hydrolysis and fermentation. […] The higher the dose, the greater the decrease in SBPs. […] There is strong association between ACE inhibition and the antihypertensive effects of a bioactive peptide owing to its structure, size, chain length, type and order of amino acids ... || (+ 1 further places)
# [2] = pepsin hydrolyzed peptides from porcine skeletal myosin B; ref [9]; cited from earlier work
# Text: Meat and meat products are excellent sources of ACE-inhibitory peptides. ACE-inhibitory peptides from animal proteins can be produced by several methods, including enzymatic hydrolysis and fermentation. […] The pepsin hydrolyzed peptide Lys-Arg-Val-Ile-Gln-Try and the Val-Lys-Ala-Gly-Ph sequence from por ...
molecule,measurement,setting,value
EAPLNPKANR [EAPLNPKANR],IC50,[1],44.6 µM
CC[C@H](C)[C@H](N)C(=O)N[C@H](C(=O)NCC(=O)O)C(C)C [IVG] (H-Ile-Val-Gly-OH),IC50,[1],97.3 µM
IVDR [tetrapeptide from Paralichthys olivaceus surimi],ACE inhibitory activity (in words),"ACE; tetrapeptide from Paralichthys olivaceus surimi, ref [31]",high ACE inhibitory activity
same,decrease of blood pressure in SHRs (in words),"SHRs; 6 h after administration, ref [31]",could decrease blood pressure in SHRs 6 h after its administration
LTEAPLNPKANREK,IC50,"ACE; peptide from goat meat hydrolysate (pepsin, trypsin, chymotrypsin), ref [25]",120 µM
WGAP,reduction of SBP,"SHRs; 100 mg/kg BW oral, SHRs, 4 h after administration, ref [33]",up to 42.6 mmHg
Lys-Arg-Val-Ile-Gln-Try [pepsin hydrolyzed peptide from porcine skeletal myosin B],antihypertensive effects in vivo (in words),[2],showed antihypertensive effects in vivo
LIVGIIRCV [nonapeptide from beef myofibrillar protein hydrolysate],antihypertensive effect in SHRs (in words),"SHRs; alkaline-AK-pepsin hydrolyzed peptide from beef myofibrillar protein, ref [8]",had an antihypertensive effect in SHRs
Val-Lys-Ala-Gly-Ph,antihypertensive effects in vivo (in words),[2],showed antihypertensive effects in vivo
IVGRPRHQG,IC50,"ACE; nonapeptide from Katsuobusi, ref [26]",6.2 µM
IKEVTER,ACE-inhibitory activity (in words),"ACE; peptide from venison treated with pepsin-trypsin-pancreatin, ref [28]",strong ACE-inhibitory activity
